In publication PMC6067974 (Neuropharmacology, 2018):
Where two headings read alike, the source gives them in different places. Marks after values point to notes of the source that are not given here.

Experiments:
mouse A1AR [1] = biological target: T1, mouse A1AR (Mus musculus, UniProt Q60612); assay: Radioligand binding, mouse A1AR; conditions: for A1AR rat: mouse ratio: ratio of rat Ki to mouse Ki at A1AR
T1 sequence (Q60612 1-326): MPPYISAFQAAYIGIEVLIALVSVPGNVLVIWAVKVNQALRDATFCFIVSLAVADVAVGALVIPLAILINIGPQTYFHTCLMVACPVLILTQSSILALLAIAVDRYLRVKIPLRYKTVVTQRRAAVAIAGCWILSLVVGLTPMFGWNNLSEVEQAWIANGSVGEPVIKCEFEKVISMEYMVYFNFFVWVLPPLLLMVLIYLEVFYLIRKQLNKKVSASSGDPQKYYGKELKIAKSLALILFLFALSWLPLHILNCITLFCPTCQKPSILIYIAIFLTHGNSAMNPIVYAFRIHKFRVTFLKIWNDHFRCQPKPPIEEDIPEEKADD

mouse A2AAR = mouse A2AAR (Mus musculus, UniProt Q60613); assay: Radioligand binding, mouse A2AAR
mouse A3AR [2] = biological target: T2, mouse A3AR (Mus musculus, UniProt Q61618); assay: Radioligand binding, mouse A3AR
T2 sequence (Q61618 1-319): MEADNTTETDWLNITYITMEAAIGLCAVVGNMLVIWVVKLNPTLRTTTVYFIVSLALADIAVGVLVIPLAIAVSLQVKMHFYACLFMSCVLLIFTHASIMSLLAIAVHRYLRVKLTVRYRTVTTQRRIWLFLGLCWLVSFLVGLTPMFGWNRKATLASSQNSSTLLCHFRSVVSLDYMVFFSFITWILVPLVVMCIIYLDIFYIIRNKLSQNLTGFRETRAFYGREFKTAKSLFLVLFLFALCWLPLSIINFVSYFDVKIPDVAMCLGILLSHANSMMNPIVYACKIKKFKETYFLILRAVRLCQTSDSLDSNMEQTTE

mice [3] = assay: Telemetric monitoring of Tb and physical activity in mice; type: in vivo, mouse; conditions: for block of PSB-0777-induced hypothermia: i.p. at -15 min, then PSB-0777 1 mg/kg i.p.
[4] = biological target: human β1 adrenergic receptor (Homo sapiens, UniProt P08588); conditions: read-out: Ki, human β1 adrenergic receptor; PDSP screen
[5] = biological target: human β3 adrenergic receptor (Homo sapiens, UniProt P13945); conditions: read-out: Ki, human β3 adrenergic receptor; PDSP screen
A2BAR [6] = conditions: read-out: Ki, A2BAR (h), human, cited from earlier work
A1AR = conditions: cited from earlier work
brown adipose tissue = conditions: by stimulation of brown adipose tissue; ref Gnad et al., 2014; cited from earlier work
[7] = test system: 45 human receptors, channels, and transporters; assay: PDSP off-target screen, whole panel; type: binding; conditions: at <10 μM
mice [8] = conditions: cited from earlier work
mice [9] = conditions: intraarterial CGS-21680; wild type mice; ref Ledent et al., 1997; cited from earlier work
[10] = cited from earlier work
mice [11] = assay: Indirect calorimetry; conditions: CGS-21680 0.25 mg/kg, i.p.; C57BL/6J mice
A2BAR [12] = conditions: rat; ref Hide et al., 1992; cited from earlier work
mouse A1AR [13] = biological target: T1, mouse A1AR; conditions: ref Carlin et al., 2017, cited from earlier work
human 5HT2B receptor = human 5HT2B receptor (Homo sapiens, UniProt P41595); assay: PDSP off-target radioligand binding, 5HT2B receptor
[14] = biological target: M3 acetylcholine receptor (Homo sapiens, UniProt P20309); assay: PDSP off-target radioligand binding, M3 acetylcholine receptor
[15] = biological target: serotonin transporter (SERT) (Homo sapiens, UniProt P31645); assay: PDSP off-target radioligand binding, serotonin transporter
mouse A3AR [16] = biological target: T2, mouse A3AR; conditions: read-out: mouse Ki, A3AR, ref Carlin et al., 2017; cited from earlier work
[17] = read-out: mouse Ki, A1AR, mouse, current results, ± SEM
[18] = read-out: mouse Ki, A2AAR, mouse, current results, ± SEM
[19] = PSB-0777 ≤3 mg/kg, i.p., wild type mice
[20] = CGS-21680 0.01–1 mg/kg, i.p., C57BL/6J mice
[21] = preladenant 1 mg/kg, i.p., alone, data not shown
[22] = SCH442416 3 mg/kg, i.p., alone, data not shown

mouse A2AAR, sequence (Q60613 whole entry): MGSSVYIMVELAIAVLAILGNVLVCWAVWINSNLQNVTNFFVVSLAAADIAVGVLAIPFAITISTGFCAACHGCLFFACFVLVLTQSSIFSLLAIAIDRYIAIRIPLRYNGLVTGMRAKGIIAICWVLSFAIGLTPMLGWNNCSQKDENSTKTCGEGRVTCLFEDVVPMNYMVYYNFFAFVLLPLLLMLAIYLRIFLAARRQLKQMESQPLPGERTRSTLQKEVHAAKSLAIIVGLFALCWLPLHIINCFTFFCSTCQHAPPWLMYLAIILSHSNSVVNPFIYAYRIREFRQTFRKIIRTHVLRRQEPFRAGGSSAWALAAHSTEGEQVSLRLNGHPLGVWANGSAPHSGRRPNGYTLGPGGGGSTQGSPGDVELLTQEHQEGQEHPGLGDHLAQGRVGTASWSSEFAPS
human 5HT2B receptor, sequence (P41595 whole entry): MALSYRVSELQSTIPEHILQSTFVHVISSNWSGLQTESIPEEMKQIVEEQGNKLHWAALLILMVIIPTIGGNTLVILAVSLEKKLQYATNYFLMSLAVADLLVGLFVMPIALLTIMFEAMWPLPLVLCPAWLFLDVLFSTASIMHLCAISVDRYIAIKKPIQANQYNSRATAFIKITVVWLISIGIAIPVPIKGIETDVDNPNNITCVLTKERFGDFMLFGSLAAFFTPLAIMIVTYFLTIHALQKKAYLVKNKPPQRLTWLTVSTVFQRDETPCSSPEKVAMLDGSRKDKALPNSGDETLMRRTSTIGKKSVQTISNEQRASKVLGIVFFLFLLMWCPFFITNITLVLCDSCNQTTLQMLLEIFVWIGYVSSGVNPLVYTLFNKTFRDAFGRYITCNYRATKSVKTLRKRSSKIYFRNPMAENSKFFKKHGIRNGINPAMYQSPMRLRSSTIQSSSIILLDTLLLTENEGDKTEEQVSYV
human β1 adrenergic receptor, sequence (P08588 whole entry): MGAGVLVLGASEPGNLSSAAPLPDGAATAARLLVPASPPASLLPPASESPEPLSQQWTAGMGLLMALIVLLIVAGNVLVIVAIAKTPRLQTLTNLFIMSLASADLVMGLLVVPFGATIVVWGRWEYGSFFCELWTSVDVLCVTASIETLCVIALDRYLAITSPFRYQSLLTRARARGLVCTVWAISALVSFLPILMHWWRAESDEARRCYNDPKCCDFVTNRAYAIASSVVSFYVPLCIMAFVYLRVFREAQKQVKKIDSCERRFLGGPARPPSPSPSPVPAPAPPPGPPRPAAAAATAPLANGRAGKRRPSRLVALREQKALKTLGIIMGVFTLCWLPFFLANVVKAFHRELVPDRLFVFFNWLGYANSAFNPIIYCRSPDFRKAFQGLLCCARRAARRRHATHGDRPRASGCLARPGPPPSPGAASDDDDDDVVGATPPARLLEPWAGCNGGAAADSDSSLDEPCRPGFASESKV
M3 acetylcholine receptor, sequence (P20309 whole entry): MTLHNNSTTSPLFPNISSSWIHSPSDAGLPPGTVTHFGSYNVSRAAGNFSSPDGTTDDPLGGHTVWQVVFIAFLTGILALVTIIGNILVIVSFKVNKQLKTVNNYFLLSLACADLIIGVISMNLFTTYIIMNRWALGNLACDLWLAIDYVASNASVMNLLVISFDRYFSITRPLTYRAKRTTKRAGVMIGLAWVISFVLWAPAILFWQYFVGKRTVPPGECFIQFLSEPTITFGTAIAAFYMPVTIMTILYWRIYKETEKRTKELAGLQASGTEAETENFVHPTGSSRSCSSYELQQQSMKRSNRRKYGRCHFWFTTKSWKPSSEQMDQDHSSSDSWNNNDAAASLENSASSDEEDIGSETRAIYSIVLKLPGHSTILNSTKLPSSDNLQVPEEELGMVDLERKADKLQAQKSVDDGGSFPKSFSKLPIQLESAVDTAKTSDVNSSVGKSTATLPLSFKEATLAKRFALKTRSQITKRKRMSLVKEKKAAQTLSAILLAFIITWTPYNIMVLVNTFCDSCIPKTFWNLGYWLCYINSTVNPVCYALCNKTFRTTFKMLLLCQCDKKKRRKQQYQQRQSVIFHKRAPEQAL
human β3 adrenergic receptor, sequence (P13945 whole entry): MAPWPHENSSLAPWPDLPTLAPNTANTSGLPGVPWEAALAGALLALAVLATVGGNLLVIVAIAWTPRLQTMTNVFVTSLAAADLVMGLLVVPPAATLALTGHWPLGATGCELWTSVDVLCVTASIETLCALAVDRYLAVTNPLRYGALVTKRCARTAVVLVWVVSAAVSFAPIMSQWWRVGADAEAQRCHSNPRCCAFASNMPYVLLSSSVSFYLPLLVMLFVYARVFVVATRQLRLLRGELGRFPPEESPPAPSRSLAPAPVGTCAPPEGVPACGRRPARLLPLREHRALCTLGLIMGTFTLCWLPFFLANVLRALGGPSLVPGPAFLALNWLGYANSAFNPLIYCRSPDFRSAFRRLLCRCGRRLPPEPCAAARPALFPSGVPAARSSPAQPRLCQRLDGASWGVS
serotonin transporter (SERT), sequence (P31645 whole entry): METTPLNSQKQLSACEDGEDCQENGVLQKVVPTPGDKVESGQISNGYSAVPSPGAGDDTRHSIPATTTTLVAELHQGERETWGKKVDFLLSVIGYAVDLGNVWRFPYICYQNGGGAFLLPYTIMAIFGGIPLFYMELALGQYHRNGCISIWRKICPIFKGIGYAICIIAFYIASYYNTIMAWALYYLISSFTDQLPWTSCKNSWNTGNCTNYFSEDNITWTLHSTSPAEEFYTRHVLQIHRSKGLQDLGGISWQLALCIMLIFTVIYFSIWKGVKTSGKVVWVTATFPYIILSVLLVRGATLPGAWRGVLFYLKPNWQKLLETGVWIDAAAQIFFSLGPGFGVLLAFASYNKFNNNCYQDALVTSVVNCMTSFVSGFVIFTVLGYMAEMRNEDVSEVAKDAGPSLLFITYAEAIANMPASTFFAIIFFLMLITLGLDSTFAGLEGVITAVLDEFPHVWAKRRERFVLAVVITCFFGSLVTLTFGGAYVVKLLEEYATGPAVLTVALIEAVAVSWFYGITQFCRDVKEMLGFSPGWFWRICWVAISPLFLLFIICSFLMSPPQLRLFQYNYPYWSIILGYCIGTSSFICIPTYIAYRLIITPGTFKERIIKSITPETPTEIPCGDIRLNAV

N.Nc1nc(SCCc2ccc(S(=O)(=O)O)cc2)nc2c1ncn2[C@@H]1O[C@H](CO)[C@@H](O)[C@H]1O [PSB-0777, 4-[2-[(6-Amino-9-b-D-ribofuranosyl-9H-purin-2-yl)thio]ethyl]benzenesulfonic acid ammonium salt]
A1AR rat: mouse ratio (mouse A1AR [1]): >500 | Ki (mouse A1AR [1]; [17]): 18.4 ± 1.1 nM | Ki (mouse A2AAR; [18]): 193 ± 28 nM | % inhibition at 10 μM, mouse A3AR (mouse A3AR [2]; mouse, 10 μM, current results, ± SEM): 26 ± 1% ^e | Tb response (hypothermia) (mice [3]; PSB-0777 i.p., Adora2a−/− mice): abolished | Tb response (hypothermia) (mice [3]; [19]): dose-dependent hypothermia | physical activity (mice [3]; [19]): hypoactivity | Ki [4]: 4400 nM | Ki [5]: 3300 nM | Ki (A2BAR [6]; ref El-Tayeb et al., 2011): > 10000 nM | Ki (A1AR; read-out: rat Ki, A1AR, ref El-Tayeb et al., 2011): ≥ 10000 nM | energy expenditure (brown adipose tissue): increased energy expenditure

CCNC(=O)[C@H]1O[C@@H](n2cnc3c(N)nc(NCCc4ccc(CCC(=O)O)cc4)nc32)[C@H](O)[C@@H]1O [CGS-21680, 2-[p-(2-carboxyethyl)phenethylamino]-5′-N-ethylcarboxamidoadenosine]
off-target activities detected [7]: none | Tb response (hypothermia) (mice [3]; CGS-21680 0.01 mg/kg i.c.v., C57BL/6J mice): No hypothermia | Tb response (hypothermia) (mice [3]; CGS-21680 0.5 mg/kg, i.p., Adora1−/−;Adora3−/− mice): intact | Tb response (hypothermia) (mice [3]; CGS-21680 0.5 mg/kg, i.p., Adora2a−/− mice): did not cause hypothermia | Tb response (hypothermia) (mice [3]; CGS-21680 0.5 mg/kg, i.p., KitW−sh/W−sh mice (lack mast cells)): showed a hypothermic response | Tb response (hypothermia) (mice [3]; [20]): dose-dependent hypothermia | physical activity (mice [3]; [20]): hypoactivity | hypothermia (mice [8]; CGS-21680, high i.c.v. dose, ref Anderson et al., 1994): mild hypothermia | hypothermia (mice [8]; CGS-21680, peripheral dosing, ref Eisner et al., 2017): mild hypothermia | blood pressure (mice [9]): caused hypotension | brain penetrant ([10]; ref Nikodijevic et al., 1990): no ^d | food intake (mice [11]): reduced food intake | metabolic rate (total energy expenditure) (mice [11]): marked reduction in metabolic rate | time of Tb nadir (mice [11]): ~ 65 minutes | time of energy expenditure nadir (mice [11]): ~ 26 minutes

CCNC(=O)[C@H]1O[C@@H](n2cnc3c(N)nc(NCCc4ccc(CCC(=O)NCCN)cc4)nc32)[C@H](O)[C@@H]1O [APEC, 2-[[2-[4-[2-(2-aminoethyl)-aminocarbonyl]ethyl]phenyl]ethylamino]-5′-N-ethyl-carboxamidoadenosine]
binding to mouse A1AR better than rat A1AR (mouse A1AR [1]; mouse vs rat A1AR): ~ 100 fold | A1AR rat: mouse ratio (mouse A1AR [1]): 95 | Ki (mouse A1AR [1]; [17]): 4.17 ± 0.15 nM | Ki (mouse A2AAR; [18]): 3.57 ± 0.22 nM | Ki (mouse A3AR [2]; read-out: mouse Ki, A3AR, mouse, current results, ± SEM): 55.1 ± 4.3 nM | Tb response (mice [3]; APEC 1.7 μg/kg i.p.): blunting the handling hyperthermia | Tb response (hypothermia) (mice [3]; APEC 50 μg/kg i.p.): robust hypothermia | physical activity (mice [3]; APEC 50 μg/kg i.p.): hypoactivity | Tb response (hypothermia) (mice [3]; APEC i.p., Adora1−/−;Adora3−/− mice): attenuated | Tb response (hypothermia) (mice [3]; APEC i.p., Adora2a−/− mice): attenuated | Tb response (hypothermia) (mice [3]; APEC i.p., Adora2b−/− mice): fully intact | A2BAR (r) activity (A2BAR [12]): inactive (r) ^h | Ki (A1AR; read-out: rat Ki, A1AR, ref Kim et al., 1994): 400 nM

CCN(CC)CC.Nc1nc2c(cnn2CCCc2ccc(OCc3ccc(S(=O)(=O)O)cc3)cc2)c2nc(-c3ccco3)nn12 [MRS7352, 4-((4-(3-(5-amino-2-(furan-2-yl)-7H-pyrazolo[4,3-e][1,2,4]triazolo[1,5-c]pyrimidin-7-yl)propyl)phenoxy)methyl)benzenesulfonate triethylammonium salt]
physical activity (mice [3]; MRS7352 3 mg/kg, i.p.): without affecting physical activity | block of PSB-0777-induced hypothermia (mice [3]; MRS7352 3 mg/kg): completely blocked

OC[C@H]1O[C@@H](n2cnc3c(NC4CCCC4)ncnc32)[C@H](O)[C@@H]1O [N^6-cyclopentyladenosine]
advantage in binding affinity (A1AR vs A3AR) (mouse A1AR [13]; A1AR vs A3AR): 2000 fold

Nc1ncnc2c1ncn2[C@@H]1O[C@H](CO)[C@@H](O)[C@H]1O [adenosine]
Tb response (hypothermia) (mice [3]; adenosine 100 mg/kg, i.p., Adora1−/−;Adora3−/− mice): robust hypothermia

COCCOc1ccc(N2CCN(CCn3ncc4c3nc(N)n3nc(-c5ccco5)nc43)CC2)cc1 [preladenant]
Tb (mice [3]; [21]): increase in Tb | locomotor activity (mice [3]; [21]): increased locomotor activity

COc1ccc(CCCn2ncc3c2nc(N)n2nc(-c4ccco4)nc32)cc1 [SCH442416, 2-(2-furyl)-7-[3-(4-methoxyphenyl)propyl]-7H-pyrazolo[4,3-e][1,2,4]triazolo[1,5-c]pyrimidin-5-amine]
Ki (human 5HT2B receptor): 910 nM | Ki [14]: 6800 nM | Ki [15]: 6100 nM | block of PSB-0777-induced hypothermia (mice [3]; SCH442416 0.6 mg/kg): largely blocked | physical activity (mice [3]; SCH442416 0.6 mg/kg, i.p., by itself, p=0.078): trended to increase activity | Tb (mice [3]; SCH442416 0.6 mg/kg, i.p., by itself, p=0.10): trended to increase | Tb (mice [3]; [22]): increase in Tb | locomotor activity (mice [3]; [22]): increased locomotor activity | Ki (mouse A1AR [13]; read-out: mouse Ki, A1AR, mouse): 765 nM | Ki (mouse A3AR [16]): > 10000 nM | Ki (A2BAR [6]; ref Todde et al., 2000): > 10000 nM | Ki (A1AR; read-out: rat Ki, A1AR, ref Todde et al., 2000): 1820 nM | brain penetrant ([10]; ref Todde et al., 2000): yes ^j

CNC(=O)c1cnn(-c2nc(N)c3ncn([C@@H]4O[C@H](CO)[C@@H](O)[C@H]4O)c3n2)c1 [regadenoson, 1-[6-amino-9-[(2R,3R,4S,5R)-3,4-dihydroxy-5-(hydroxymethyl)oxolan-2-yl]purin-2-yl]-N-methylpyrazole-4-carboxamide]
Ki (mouse A1AR [1]): 7.75 ± 0.05 nM | binding to A1AR more tightly than to A2AAR (mouse A1AR [1]; mouse binding, Table 1): 10 fold | binding to mouse A1AR better than human A1AR (mouse A1AR [1]; mouse vs human A1AR (human value Gao et al., 2001)): > 1000 fold | Ki (mouse A2AAR): 77.2 ± 6.3 nM | inhibition at 10 µM (mouse A3AR [2]; read-out: % inhibition at 10 μM, mouse A3AR): 7 ± 2% | Ki (A2BAR [6]; ref Gao et al., 2001): > 100000 nM
